Where a SMILES comes first, the peptide text is derived from it. The star is where a group is joined. Cbz = O=C(OCc1ccccc1)*
What was measured:
RPN13 = RPN13 (Homo sapiens, UniProt Q16186); experiment: Rpn13 immunoblot in MM.1S cells; format: cell-based; set-up: endogenous in cells; host or cells: MM.1S; MM.1S-CRBN KO; RPMI-8226; ANBL6.BR
Protocol: Protein lysates were loaded on SDS-PAGE and transferred to PVDF membrane, and then immunoblotted with anti-alpha tubulin and Rpn13 antibodies.
In FIG. 17, MM.1S cells were treated with RA190 or JQRA at 200 nM and 400 nM, respectively, for 48 hours; and treated with RA190 or JQRA at 200 nM and 800 nM, respectively, for 48 hours. Protein lysates were loaded on SDS-PAGE and transferred to PVDF membrane, and then immunoblotted with anti-alpha tubulin and Rpn13 antibodies.
MM.1S cells, which were treated with DMSO control, bortezomib, or WL40 at indicated concentration for 3 hours; protein lysates were analyzed for different proteasome activities (CT-L, chymotrypsin-like; T-L, trypsin-like; C-L, caspase-like). FIG. 20B is a bar graph showing percent proteasome activity after normalization with DMSO control (mean±SD; n=3). Recombinant 20S proteasome was incubated with DMSO, bortezomib, or WL40 for 30 minutes, followed by assessment of the above-noted proteasome activities. FIG. 20C MM.1S cells were pretreated with exemplary proteasome inhibitor MG132 (10 μM) for 1 hour, followed by addition of WL40 (400 nM) for 8 hours. […] Total protein lysates were subjected to immunoblots for Rpn13 and α-tubulin. […] FIG. 20E ANBL6.BR cells were treated with WL40 (400 nM) or RA190 (500 nM) for 16 hours; protein lysates were subjected to immunoblot analysis using anti-Rpn13 or anti-β-actin Abs.
Cellular protein extracts were prepared using RIPA lysis buffer (50 mM Tris-HCl, 150 mM NaCl, 1% NP-40, 0.5% sodium deoxycholate, and 0.1% SDS). Protein lysates were subjected to immunoblotting using antibodies against poly ADP ribose polymerase (PARP, BD Bioscience Pharmingen, San Diego, Calif.), caspase 3, caspase 8, p53 (Santa Cruz Biotechnology), caspase 9, p-eIF2a (Abeam, Cambridge, Mass.), caspase 7, cyclin B1, CDC25C, CDCl2, p21, Rpn13, PERK, BIP, Calnexin, GFP, LC3A/B, α-tubulin (Cell Signaling, Beverly, Mass.), polyubiquitin (Enzo Life Sciences, Inc., Farmingdale, N.Y.), or β-actin (Sigma-Aldrich, St. Louis, Mo.).
Next, it was examined whether WL40 decreases cellular Rpn13 levels in MM cells. MM.1S cells were treated with various concentrations of WL40 (20 0 nM, 400 nM, or 800 nM) for 4 hours, 8 hours, and 16 hours; protein lysates were then analyzed for Rpn13 levels using immunoblot analysis. […] Decrease in Rpn13 levels was detectable as early as 8 hours after WL40 treatment and maximally (95%) reduced at 16 hours. Rpn13 protein level reduction was not observed with RA190 treatment (FIG. 19E, lower panel). There was no change in protein levels of tubulin, used as a loading control (FIG. 19E). To further corroborate the findings, MM.1S cells were treated with WL40, and then analyzed intracellular alterations in Rpn13 using flow cytometry.

[1] = system: HCT116 and HCT116-Rpn13KO cell lines; experiment: HCT116 and HCT116-Rpn13KO cell viability; format: cell-based; settings: HCT116 versus HCT116-Rpn13KO; 48 hours; Wst-1
Protocol: FIGS. 8A and 8B show HCT116 and HCT116-Rpn13KO cell lines that were treated with WL40 or WL44 at the indicated concentrations for 48 hours. Wst-1 assay was used to test cell viability.
CRISPR-Cas9 genome editing was performed to generate Rpn13-knockout (Rpn13-KO) HCT116 and MM.1S cell lines. Cells were transfected with Rpn13-CRISPR/Cas9-knockout (KO) plasmid (Santa Cruz Biotechnology, Inc., Santa Cruz, Calif., USA) using Lipofectamine 2000 (Thermo Fisher Scientific, Waltham, Mass., USA) or the cell line Nucleofector Kit V (Amaxa Biosystems, Cologne, Germany), respectively. After 48 h incubation, green fluorescent protein (GFP)-positive cells were sorted. Rpn13 KO was confirmed by both protein expression studies and DNA sequencing.

MM.1S CRBN KO cells = experiment: MM.1S CRBN KO cell viability; format: cell-based, Human; settings: MM.1S-CRBN KO; 24 hours; Wst-1
Description: FIGS. […] Wst-1 assay was used to test cell viability.
The experiment was repeated twice and JQRA concentration was increased (as indicated) at the second time.

[2] = system: Ub-tagged GFP that is constitutively targeted for proteasomal degradation; experiment: Ub-GFP (GFPu-1) reporter cell line immunoblot; format: cell-based; settings: WL40, WL44 0.5-2.0 μM; RA190 1 μM; 16 hours
Protocol: Cell lysates were loaded on SDS-PAGE, transferred to PVDF membrane, then immunoblotted with anti-GFP, and anti beta-actin antibodies.
In FIG. 18, a reporter cell line expressing Ub-tagged GFP that is constitutively targeted for proteasomal degradation was treated with RA190 ([…]); and JQRA ([…]) for 16 hours. Cell lysates were loaded on SDS-PAGE, transferred to PVDF membrane, then immunoblotted with anti-GFP, and anti-alpha tubulin antibodies.
FIGS. 19A-19I show the exemplary design and characterization of exemplary Rpn13 degrader WL40. […] WL40 was created by linking the Rpn13 inhibitor RA190 to the IMiD thalidomide as a ligand for the CRBN E3 ligase via a PEG linker. […] FIG. 19C is a schematic cartoon for the novel AlphaScreen assay to measure the binding activity of inhibitor with RPN13 proteins. […] FIG. 19E depicts immunoblot analysis of multiple myeloma 1S (MM.1S) cells, which were treated with WL40 or RA190 at the indicated concentrations and time periods; protein lysates were subjected to the immunoblot analysis using anti-Rpn13 or anti-tubulin Abs. FIG. 19F depicts flow cytometry analysis of MM.1S cells, which were treated with DMSO control, WL40 (400 nM), or RA190 (500 nM) for 16 hours; cells were then washed and stained with Rpn13 Ab conjugated with AlexaFluor-647, followed by the flow cytometry analysis. Isotype Ab conjugated to AlexaFluor-647 was used as control for non-specific binding. Data was quantified using FACS Diva (BD Biosciences, USA) and FlowJo (FlowJo LLC, USA). FIG. 19G depicts immunoblot analysis of MM.1S-CRBN KO cells, which were treated with WL40 (400 nM) or RA190 (500 nM) for 16 hours; protein lysates were subjected to the immunoblot analysis using anti-Rpn13 or anti β-actin Abs. […]
To confirm that CRBN presence is a prerequisite for the function of WL40 in cells, CRBN-knockout (KO) MM.1S cells^27, 38 were utilized, and the effect of WL40 on Rpn13 degradation was examined. […] GFPu-1 cells were treated with WL40, and GFP levels were then analyzed using immunoblotting. […]

[3] = system: multiple myeloma cell lines; experiment: Viability of a panel of multiple myeloma cell lines; format: cell-based, Human; settings: multiple myeloma cell lines; 48 hours; Wst-1
Description: FIGS. […] Wst-1 assay was used to test cell viability. FIGS. 6A and 6B show the effect of exemplary bifunctional compounds WL40 and WL44 on multiple myeloma cell lines.

normal PBMCs = experiment: Viability of normal PBMCs; format: cell-based, Human; settings: at the IC50; 48 hours; Wst-1
Protocol: FIGS. 5A and 5B show PBMCs from normal healthy donor treated with WL40 and WL44 at the indicated concentrations for 48 hours. […]
The IC50 of WL40 for cell lines is shown.

MM.1S cells = experiment: MM.1S cell viability (WST); settings: 24 hours, Wst-1
Protocol: FIGS. 4A and 4B show multiple myeloma 1S (MM.1S) cells treated with RA190, WL40, and WL44 at the indicated concentrations for 24 hours. Wst-1 assay was used to test cell viability.
In FIG. 13B, multiple myeloma cells (MM.1S) were treated with RA190 or compound JQRA at the indicated concentrations for 72 hours, and the percentage of viable cells was measured.
Purified CD138^+ patient MM cells, which were treated with DMSO control or WL40 at indicated concentrations for 48 hours, followed by assessment for cell viability using CellTiter-Glo assay (mean±SD of triplicate cultures; p<0.001). […] Normal PBMCs from healthy donors were treated with DMSO control or WL40 at indicated concentrations for 48 hours, and then analyzed for cell viability using CellTiter-Glo assay (mean±SD of quadruplicate cultures). […] MM.1S cells were cultured with or without patient BMSCs in the presence or absence of WL40 for 48 hours, and cell proliferation was measured by WST assay (mean±SD; n=3; p<0.0001). […] MM.1S cells were cultured with or without patient pDCs in the presence or absence of WL40 for 48 hours, and cell proliferation was measured by WST assay (mean±SD; n=3; p<0.0001).

Chain of RPN13 (Q16186 whole entry): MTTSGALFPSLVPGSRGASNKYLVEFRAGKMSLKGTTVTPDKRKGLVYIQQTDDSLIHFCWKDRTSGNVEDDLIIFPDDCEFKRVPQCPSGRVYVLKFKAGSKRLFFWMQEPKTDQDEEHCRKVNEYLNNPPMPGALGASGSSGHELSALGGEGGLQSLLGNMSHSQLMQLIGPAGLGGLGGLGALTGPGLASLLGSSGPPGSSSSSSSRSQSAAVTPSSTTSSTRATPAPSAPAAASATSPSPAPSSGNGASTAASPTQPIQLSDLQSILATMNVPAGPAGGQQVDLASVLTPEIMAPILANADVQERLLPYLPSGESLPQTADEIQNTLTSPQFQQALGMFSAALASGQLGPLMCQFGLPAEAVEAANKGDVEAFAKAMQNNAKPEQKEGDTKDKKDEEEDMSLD

SMILES | Rpn13 levels (immunoblot) (RPN13; MM.1S cells, 200 nM, 400 nM, 800 nM, 4, 8, 16 hours) | RPN13 dependence of cytotoxicity [1] | cell viability (MM.1S CRBN KO cells) | Ub-GFP levels / proteasome function (immunoblot) [2] | cell viability IC50 [3] | viability of normal PBMCs (normal PBMCs) | cell viability IC50 (MM.1S cells) | WL40-mediated Rpn13 degradation after proteasome inhibitor pretreatment (RPN13; MM.1S, MG132 (10 μM) 1 hour, then WL40 (400 nM) 8 hours)
O=C1CCC(N2C(=O)c3ccc(NCCOCCOCCOCCC(=O)N[C@H](Cc4ccccc4)C(=O)N4C/C(=C\c5ccc(Cl)c(Cl)c5)C(=O)/C(=C/c5ccc(Cl)c(Cl)c5)C4)cc3C2=O)C(=O)N1 (some centres unmarked) [WL44] | degrade Rpn13 | RPN13-dependent | decrease cell viability | block proteasome function | high IC50 in several cell lines | do not significantly affect the viability | lower IC50 compared to compound RA190 | 
CC(C)C[C@@H](C=O)NC(=O)[C@H](CC(C)C)NC(=O)[C@H](CC(C)C)NC(=O)OCc1ccccc1 [MG132, reference compound] (Cbz-Leu-Leu-Leu-aldehyde) |  |  |  |  |  |  |  | blocked WL40-mediated Rpn13 degradation

— patent publication US11702402B2, “Small molecules that block proteasome-associated ubiquitin receptor RPN13 function and uses thereof” (DANA-FARBER CANCER INSTITUTE, INC., priority 2018, dated 2023)
